Results from US20230085307A1, “PYRIDAZINONE COMPOUND AND HERBICIDE” (NISSAN CHEMICAL CORPORATION, priority 2019, published 2023).

The compounds below were run on rice flat sedge (assay: Test Example 3: herbicidal effect by foliage application, Wagner pot (Table 18, symbol E)). Conditions: 320 g/ha.
Assay type: in vivo, rice flat sedge (Cyperus iria)
Procedure, shortened: (§1)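 Plants were sown in alluvial soil held under 0.1–0.5 cm standing water and grown 14 days in a greenhouse at 25–30 °C. An emulsifiable formulation, water-diluted to the set dose, was then sprayed onto the foliage, and effects were scored three weeks later using previously defined criteria.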
For `CCOc1cc(F)ccc1-c1sc2ccccc2c1-c1c(O)c(C)nn(C)c1=O` [1-061], the “herbicidal effect on E (rice flat sedge), rating 0-5” value was 5 (Herbicidal rate of 90% or more (almost completely withered)).
In the case of `COC(=O)Oc1c(C)nn(C)c(=O)c1-c1c(-c2ccc3c(c2)OCCO3)sc2ccccc12` [1-091], the “herbicidal effect on E (rice flat sedge), rating 0-5” value is reported as 5 (Herbicidal rate of 90% or more (almost completely withered)).

What follows are compounds tested on blackgrass (assay: Test Example 5: herbicidal effect by foliage application, plastic box (Table 20, symbol J)). Conditions: foliage application, 320 g/ha, three weeks after application.
Assay type: in vivo, blackgrass (Alopecurus myosuroides)
Procedure, shortened: (§2)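 Sow seeds spot-wise in sterilized diluvial soil; cover with ~1.5 cm soil. Grow 14 days in greenhouse, 25° C. to 30° C. Spray foliage with emulsion diluted to predetermined amount. Rate effect after 3 weeks.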
`CCOc1cc(F)ccc1-c1sc2ccccc2c1-c1c(O)c(C)nn(C)c1=O` [1-061] was tested, and the “herbicidal effect grade, J: blackgrass” value was 5 (Herbicidal rate of 90% or more (almost completely withered)).

Same assay, conditions: foliage application, AAH 320 g/ha, three weeks after application
For `COC(=O)Oc1c(C)nn(C)c(=O)c1-c1c(-c2ccc3c(c2)OCCO3)sc2ccccc12` [1-091], the “J: blackgrass, herbicidal effect” value was 3 (Herbicidal rate of 40% or more and less than 70%).

What follows are compounds tested on redroot pigweed (assay: Test Example 4: herbicidal effect by soil treatment (Table 19, symbol N)). Conditions: amount of applied herbicide 320 g/ha.
Assay type: in vivo, redroot pigweed (Amaranthus retroflexus)
Procedure, shortened: (§3)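 Applied as a water-diluted emulsion, the compound was sprayed onto soil covering newly sown seeds. Evaluation came three weeks after application, in a greenhouse held at 25° C. to 30° C.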
`CCOc1cc(F)ccc1-c1sc2ccccc2c1-c1c(O)c(C)nn(C)c1=O` [1-061] was tested, and the “herbicidal effect rating, N: redroot pigweed” value was 4 (Herbicidal rate of 70% or more and less than 90%).
With `COC(=O)Oc1c(C)nn(C)c(=O)c1-c1c(-c2ccc3c(c2)OCCO3)sc2ccccc12` [1-091] the “herbicidal effect rating, N: redroot pigweed” value was 3 (Herbicidal rate of 40% or more and less than 70%).

Each compound was assayed on Japanese bulrush (assay: Test Example 1: herbicidal activity, application before weed generation under submerged conditions (Table 16, symbol B)). Conditions: 320 g/ha applied herbicide.
Assay type: in vivo, Japanese bulrush (Schoenoplectus juncoides)
Procedure, shortened: (§4)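 Alluvial soil was flooded to 4 cm depth, weed seeds were sown mixed and 2.5-leaf rice seedlings were transplanted. On sowing day, the compound's emulsion, diluted in water to a set dose, was applied to the water surface. Plants grew at 25–30 °C and were scored 0–5 after three weeks.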
`CCOc1cc(F)ccc1-c1sc2ccccc2c1-c1c(O)c(C)nn(C)c1=O` [1-061] was tested, and the “Herbicidal effect on B: Japanese bulrush (grade 0-5)” value was 3 (Herbicidal rate of 40% or more and less than 70%).
For `COC(=O)Oc1c(C)nn(C)c(=O)c1-c1c(-c2ccc3c(c2)OCCO3)sc2ccccc12` [1-091], the “Herbicidal effect on B: Japanese bulrush (grade 0-5)” value was 4 (Herbicidal rate of 70% or more and less than 90%).

What follows are compounds tested on windgrass (assay: Test Example 4: herbicidal effect by soil treatment (Table 19, symbol L)). Conditions: amount of applied herbicide 320 g/ha.
Assay type: in vivo, windgrass (Apera spica-venti)
Procedure, shortened: as §3
For `CCOc1cc(F)ccc1-c1sc2ccccc2c1-c1c(O)c(C)nn(C)c1=O` [1-061], the “herbicidal effect rating, L: windgrass” value was 5 (Herbicidal rate of 90% or more (almost completely withered)).
In the case of `COC(=O)Oc1c(C)nn(C)c(=O)c1-c1c(-c2ccc3c(c2)OCCO3)sc2ccccc12` [1-091], the “herbicidal effect rating, L: windgrass” value is reported as 0 (Herbicidal rate of 5% or less (almost no effect)).

These compounds were tested on southern crabgrass (assay: Test Example 5: herbicidal effect by foliage application, plastic box (Table 20, symbol F)). Conditions: foliage application, 320 g/ha, three weeks after application.
Assay type: in vivo, southern crabgrass (Digitaria ciliaris)
Procedure, shortened: as §2
With `CCOc1cc(F)ccc1-c1sc2ccccc2c1-c1c(O)c(C)nn(C)c1=O` [1-061] the “herbicidal effect grade, F: southern crabgrass” value was 5 (Herbicidal rate of 90% or more (almost completely withered)).

Same assay, conditions: foliage application, AAH 320 g/ha, three weeks after application
In the case of `COC(=O)Oc1c(C)nn(C)c(=O)c1-c1c(-c2ccc3c(c2)OCCO3)sc2ccccc12` [1-091], the “F: southern crabgrass, herbicidal effect” value is reported as 5 (Herbicidal rate of 90% or more (almost completely withered)).

Each compound was assayed on barnyard grass (assay: Test Example 3: herbicidal effect by foliage application, Wagner pot (Table 18, symbol H)). Conditions: 320 g/ha.
Assay type: in vivo, barnyard grass (Echinochloa crus-galli)
Procedure, shortened: as §1
With `CCOc1cc(F)ccc1-c1sc2ccccc2c1-c1c(O)c(C)nn(C)c1=O` [1-061] the “herbicidal effect on H (barnyard grass), rating 0-5” value was 5 (Herbicidal rate of 90% or more (almost completely withered)).
With `COC(=O)Oc1c(C)nn(C)c(=O)c1-c1c(-c2ccc3c(c2)OCCO3)sc2ccccc12` [1-091] the “herbicidal effect on H (barnyard grass), rating 0-5” value was 5 (Herbicidal rate of 90% or more (almost completely withered)).

The compounds below were run on false cleavers (assay: Test Example 4: herbicidal effect by soil treatment (Table 19, symbol Q)). Conditions: amount of applied herbicide 320 g/ha.
Assay type: in vivo, false cleavers (Galium spurium)
Procedure, shortened: as §3
In the case of `CCOc1cc(F)ccc1-c1sc2ccccc2c1-c1c(O)c(C)nn(C)c1=O` [1-061], the “herbicidal effect rating, Q: false cleavers” value is reported as 4 (Herbicidal rate of 70% or more and less than 90%).
In the case of `COC(=O)Oc1c(C)nn(C)c(=O)c1-c1c(-c2ccc3c(c2)OCCO3)sc2ccccc12` [1-091], the “herbicidal effect rating, Q: false cleavers” value is reported as 3 (Herbicidal rate of 40% or more and less than 70%).

The compounds below were run on Chinese sprangletop (assay: Test Example 3: herbicidal effect by foliage application, Wagner pot (Table 18, symbol D)). Conditions: 320 g/ha.
Assay type: in vivo, chinese sprangletop (Leptochloa chinensis)
Procedure, shortened: as §1
With `CCOc1cc(F)ccc1-c1sc2ccccc2c1-c1c(O)c(C)nn(C)c1=O` [1-061] the “herbicidal effect on D (Chinese sprangletop), rating 0-5” value was 4 (Herbicidal rate of 70% or more and less than 90%).
With `COC(=O)Oc1c(C)nn(C)c(=O)c1-c1c(-c2ccc3c(c2)OCCO3)sc2ccccc12` [1-091] the “herbicidal effect on D (Chinese sprangletop), rating 0-5” value was 1 (Herbicidal rate of 5% or more and less than 20%).

What follows are compounds tested on late watergrass (assay: Test Example 1: herbicidal activity, application before weed generation under submerged conditions (Table 16, symbol A)). Conditions: 320 g/ha applied herbicide.
Assay type: in vivo, late watergrass (Echinochloa oryzicola)
Procedure, shortened: as §4
With `CCOc1cc(F)ccc1-c1sc2ccccc2c1-c1c(O)c(C)nn(C)c1=O` [1-061] the “Herbicidal effect on A: late watergrass (grade 0-5)” value was 3 (Herbicidal rate of 40% or more and less than 70%).
For `COC(=O)Oc1c(C)nn(C)c(=O)c1-c1c(-c2ccc3c(c2)OCCO3)sc2ccccc12` [1-091], the “Herbicidal effect on A: late watergrass (grade 0-5)” value was 5 (Herbicidal rate of 90% or more (almost completely withered)).

The compounds below were run on Italian ryegrass (assay: Test Example 4: herbicidal effect by soil treatment (Table 19, symbol K)). Conditions: amount of applied herbicide 320 g/ha.
Assay type: in vivo, Italian ryegrass (Lolium multiflorum)
Procedure, shortened: as §3
For `CCOc1cc(F)ccc1-c1sc2ccccc2c1-c1c(O)c(C)nn(C)c1=O` [1-061], the “herbicidal effect rating, K: Italian ryegrass” value was 3 (Herbicidal rate of 40% or more and less than 70%).
In the case of `COC(=O)Oc1c(C)nn(C)c(=O)c1-c1c(-c2ccc3c(c2)OCCO3)sc2ccccc12` [1-091], the “herbicidal effect rating, K: Italian ryegrass” value is reported as 0 (Herbicidal rate of 5% or less (almost no effect)).

Each compound was assayed on barnyard grass (assay: Test Example 5: herbicidal effect by foliage application, plastic box (Table 20, symbol H)). Conditions: foliage application, 320 g/ha, three weeks after application.
Assay type: in vivo, barnyard grass (Echinochloa crus-galli)
Procedure, shortened: as §2
For `CCOc1cc(F)ccc1-c1sc2ccccc2c1-c1c(O)c(C)nn(C)c1=O` [1-061], the “herbicidal effect grade, H: barnyard grass” value was 5 (Herbicidal rate of 90% or more (almost completely withered)).

Same assay, conditions: foliage application, AAH 320 g/ha, three weeks after application
For `COC(=O)Oc1c(C)nn(C)c(=O)c1-c1c(-c2ccc3c(c2)OCCO3)sc2ccccc12` [1-091], the “H: barnyard grass, herbicidal effect” value was 5 (Herbicidal rate of 90% or more (almost completely withered)).

Each compound was assayed on green foxtail (assay: Test Example 5: herbicidal effect by foliage application, plastic box (Table 20, symbol G)). Conditions: foliage application, 320 g/ha, three weeks after application.
Assay type: in vivo, green foxtail (Setaria viridis)
Procedure, shortened: as §2
`CCOc1cc(F)ccc1-c1sc2ccccc2c1-c1c(O)c(C)nn(C)c1=O` [1-061] was tested, and the “herbicidal effect grade, G: green foxtail” value was 5 (Herbicidal rate of 90% or more (almost completely withered)).

Same assay, conditions: foliage application, AAH 320 g/ha, three weeks after application
`COC(=O)Oc1c(C)nn(C)c(=O)c1-c1c(-c2ccc3c(c2)OCCO3)sc2ccccc12` [1-091] was tested, and the “G: green foxtail, herbicidal effect” value was 5 (Herbicidal rate of 90% or more (almost completely withered)).

Each compound was assayed on oval-leafed pondweed (assay: Test Example 2: herbicidal activity, application during weed generation under submerged conditions (Table 17, symbol C)). Conditions: AAH 320 g/ha; application during weed generation, submerged conditions.
Assay type: in vivo, oval-leafed pondweed (Monochoria vaginalis)
Procedure, shortened: (§5)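 Steps: fill Wagner pots with alluvial soil; add water to give 4 cm depth; sow the species mixed; grow under glass at 25–30° C.; at 1–2 leaves apply water-diluted emulsion formulation to the water surface at a fixed herbicide amount; score after 3 weeks.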
`CCOc1cc(F)ccc1-c1sc2ccccc2c1-c1c(O)c(C)nn(C)c1=O` [1-061] was tested, and the “herbicidal effect rating, C: oval-leafed pondweed” value was 4 (Herbicidal rate of 70% or more and less than 90%).
`COC(=O)Oc1c(C)nn(C)c(=O)c1-c1c(-c2ccc3c(c2)OCCO3)sc2ccccc12` [1-091] was tested, and the “herbicidal effect rating, C: oval-leafed pondweed” value was 4 (Herbicidal rate of 70% or more and less than 90%).

Each compound was assayed on late watergrass (assay: Test Example 2: herbicidal activity, application during weed generation under submerged conditions (Table 17, symbol A)). Conditions: AAH 320 g/ha; application during weed generation, submerged conditions.
Assay type: in vivo, late watergrass (Echinochloa oryzicola)
Procedure, shortened: as §5
`CCOc1cc(F)ccc1-c1sc2ccccc2c1-c1c(O)c(C)nn(C)c1=O` [1-061] was tested, and the “herbicidal effect rating, A: late watergrass” value was 0 (Herbicidal rate of 5% or less (almost no effect)).
For `COC(=O)Oc1c(C)nn(C)c(=O)c1-c1c(-c2ccc3c(c2)OCCO3)sc2ccccc12` [1-091], the “herbicidal effect rating, A: late watergrass” value was 3 (Herbicidal rate of 40% or more and less than 70%).

These compounds were tested on wild oat (assay: Test Example 5: herbicidal effect by foliage application, plastic box (Table 20, symbol I)). Conditions: foliage application, 320 g/ha, three weeks after application.
Assay type: in vivo, wild oat (Avena fatua)
Procedure, shortened: as §2
For `CCOc1cc(F)ccc1-c1sc2ccccc2c1-c1c(O)c(C)nn(C)c1=O` [1-061], the “herbicidal effect grade, I: wild oat” value was 5 (Herbicidal rate of 90% or more (almost completely withered)).

Same assay, conditions: foliage application, AAH 320 g/ha, three weeks after application
With `COC(=O)Oc1c(C)nn(C)c(=O)c1-c1c(-c2ccc3c(c2)OCCO3)sc2ccccc12` [1-091] the “I: wild oat, herbicidal effect” value was 2 (Herbicidal rate of 20% or more and less than 40%).

Each compound was assayed on persian speedwell (assay: Test Example 5: herbicidal effect by foliage application, plastic box (Table 20, symbol R)). Conditions: foliage application, 320 g/ha, three weeks after application.
Assay type: in vivo, Persian speedwell (Veronica persica)
Procedure, shortened: as §2
For `CCOc1cc(F)ccc1-c1sc2ccccc2c1-c1c(O)c(C)nn(C)c1=O` [1-061], the “herbicidal effect grade, R: persian speedwell” value was 5 (Herbicidal rate of 90% or more (almost completely withered)).

Same assay, conditions: foliage application, AAH 320 g/ha, three weeks after application
`COC(=O)Oc1c(C)nn(C)c(=O)c1-c1c(-c2ccc3c(c2)OCCO3)sc2ccccc12` [1-091] was tested, and the “R: persian speedwell, herbicidal effect” value was 5 (Herbicidal rate of 90% or more (almost completely withered)).
